Experimental data published in ChEMBL document CHEMBL1201862, “PubChem BioAssay data set” (2004).
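Interpolation was linear, between the two tested concentrations surrounding the appropriate level; five concentrations were tested over 48 hours in 96-well plates. GI50 marks 50% less growth.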 Activity calls are given as the source filed them. Cut-off read from the data, not from the text of the source: active = GI50 up to about 1.1 µM and inactive = higher.

What was measured:
Assay in all cases: DTP human tumour cell line panel, 48 h
OVCAR-4 = tested on: OVCAR-4
CAKI-1 = tested on: CAKI-1
NCI-H23 = tested on: NCI-H23
SF-539 = tested on: SF-539
LOX IMVI = tested on: LOX IMVI
A498 = tested on: A498
CCRF-CEM = tested on: CCRF-CEM
HCT-116 = tested on: HCT-116
786-0 = tested on: 786-0
SNB-19 = tested on: SNB-19
U-251 = tested on: U-251
RPMI-8226 = tested on: RPMI-8226
SR = tested on: SR
HCC 2998 = tested on: HCC 2998
HOP-62 = tested on: HOP-62

| Structure (SMILES) | GI50 (OVCAR-4) | GI50 (CAKI-1) | GI50 (NCI-H23) | GI50 (SF-539) | GI50 (LOX IMVI) | GI50 (A498) | GI50 (CCRF-CEM) | GI50 (HCT-116) | GI50 (786-0) | GI50 (SNB-19) | GI50 (U-251) | GI50 (RPMI-8226) | GI50 (SR) | GI50 (HCC 2998) | GI50 (HOP-62) |
| --- | --- | --- | --- | --- | --- | --- | --- | --- | --- | --- | --- | --- | --- | --- | --- |
| CSCSCC(CO)NC(=O)/C=C/c1c(C)nc(O)nc1O (stereo unspecified) | 37 µM (inactive) | 56.6 µM (inactive) | > 100 µM (inactive) | > 100 µM (inactive) | > 100 µM (inactive) | > 100 µM (inactive) | 44.4 µM (inactive) | > 100 µM (inactive) | > 100 µM (inactive) | 28.8 µM (inactive) | 64.3 µM (inactive) | > 100 µM (inactive) | 56.4 µM (inactive) | > 100 µM (inactive) |  |
| Cc1ccc(C)c(N2C(=O)C(=O)C(c3nc4ccccc4o3)/C(=N/N)C2=O)c1 (stereo unspecified) | > 100 µM (inactive) | > 100 µM (inactive) | > 100 µM (inactive) | > 100 µM (inactive) |  | > 100 µM (inactive) | > 100 µM (inactive) | > 100 µM (inactive) | > 100 µM (inactive) | > 100 µM (inactive) | > 100 µM (inactive) |  | > 100 µM (inactive) | > 100 µM (inactive) | > 100 µM (inactive) |
| COC(=O)C(CCCC1(c2ccccc2)OCCO1)C(C)=O (stereo unspecified) | > 100 µM (inactive) |  | > 100 µM (inactive) | > 100 µM (inactive) | > 100 µM (inactive) | > 100 µM (inactive) | > 100 µM (inactive) | > 100 µM (inactive) | > 100 µM (inactive) | > 100 µM (inactive) | > 100 µM (inactive) |  | 85.1 µM (inactive) | > 100 µM (inactive) | > 100 µM (inactive) |
| CC(Oc1cc2oc(=O)cc(-c3ccccc3)c2cc1Cl)C(=O)O (stereo unspecified) | > 100 µM (inactive) | > 100 µM (inactive) | > 100 µM (inactive) | > 100 µM (inactive) | > 100 µM (inactive) | > 100 µM (inactive) | > 100 µM (inactive) | > 100 µM (inactive) | > 100 µM (inactive) | > 100 µM (inactive) | > 100 µM (inactive) |  | > 100 µM (inactive) | > 100 µM (inactive) | > 100 µM (inactive) |
| O=C1C=C(c2c(O)ccc3ccccc23)c2cc(O)ccc2C1=O | 11.1 µM (inactive) | 19.5 µM (inactive) | 15.1 µM (inactive) | 16.2 µM (inactive) | 11.5 µM (inactive) |  |  | 16 µM (inactive) | 18.7 µM (inactive) | 17.5 µM (inactive) | 14.8 µM (inactive) | 4.47 µM (inactive) | 6.59 µM (inactive) | 18.6 µM (inactive) | 20 µM (inactive) |
| CC1=C(C(=O)Nc2ccccc2)C(c2ccc([N+](=O)[O-])cc2)C(C(=O)Nc2ccccc2)=C(C)N1 |  |  | 17 µM (inactive) | 20.7 µM (inactive) | 15.2 µM (inactive) | 26.2 µM (inactive) | 10.3 µM (inactive) | 18.5 µM (inactive) | 19.8 µM (inactive) | 10.4 µM (inactive) | 17.4 µM (inactive) | 15.2 µM (inactive) | 18.4 µM (inactive) | 20.2 µM (inactive) | 39.1 µM (inactive) |
| O=C1OC(CC(=O)c2ccccc2Cl)C(Cl)=C1Cl (stereo unspecified) | > 100 µM (inactive) | > 100 µM (inactive) | > 100 µM (inactive) | > 100 µM (inactive) | > 100 µM (inactive) |  | 48.3 µM (inactive) | > 100 µM (inactive) | > 100 µM (inactive) | > 100 µM (inactive) | > 100 µM (inactive) | > 100 µM (inactive) | > 100 µM (inactive) | > 100 µM (inactive) | > 100 µM (inactive) |
| CS/C(=N\C(=S)Nc1ccccc1)Nc1ccccc1 | 26.3 µM (inactive) | 14.6 µM (inactive) | 29.4 µM (inactive) | > 10 µM (inactive) | 16.7 µM (inactive) | 21.9 µM (inactive) |  | > 10 µM (inactive) | > 10 µM (inactive) | 21.7 µM (inactive) | 19.8 µM (inactive) | 12.8 µM (inactive) | 15.4 µM (inactive) | 21.7 µM (inactive) | 27.9 µM (inactive) |
| COC1OC(C)C(OC(=O)C(C)(C)C)C(C)(O)C1O (stereo unspecified) | > 100 µM (inactive) | > 100 µM (inactive) | > 100 µM (inactive) | > 100 µM (inactive) | > 100 µM (inactive) | > 100 µM (inactive) | > 100 µM (inactive) | > 100 µM (inactive) | > 100 µM (inactive) | > 100 µM (inactive) | > 100 µM (inactive) | > 100 µM (inactive) | > 100 µM (inactive) | > 100 µM (inactive) | > 100 µM (inactive) |
| C=CCOC(C)n1c(C)cc(=O)n(C(C)OCC=C)c1=O (stereo unspecified) | > 100 µM (inactive) |  | > 100 µM (inactive) | > 100 µM (inactive) |  | > 100 µM (inactive) | > 100 µM (inactive) | > 100 µM (inactive) | > 100 µM (inactive) | > 100 µM (inactive) | > 100 µM (inactive) | > 100 µM (inactive) | > 100 µM (inactive) | > 100 µM (inactive) | > 100 µM (inactive) |
| Nc1nc(N)c(N=O)c(Nc2ccc(Br)cc2)n1 | 48 µM (inactive) | 29.4 µM (inactive) | 23.4 µM (inactive) | 16.9 µM (inactive) | 18.2 µM (inactive) | 17.6 µM (inactive) | 18.2 µM (inactive) | 13.3 µM (inactive) | 28.7 µM (inactive) | 45.1 µM (inactive) | 15.9 µM (inactive) |  | > 100 µM (inactive) | 78.9 µM (inactive) | 14.6 µM (inactive) |
| CCOC(=O)NC(=O)c1cn(CCN2CCN(C(=O)NCCCCCCNC(=O)N3CCN(CCn4cc(C(=O)NC(=O)OCC)c(=O)[nH]c4=O)CC3)CC2)c(=O)[nH]c1=O | > 100 µM (inactive) |  | > 100 µM (inactive) | > 100 µM (inactive) | > 100 µM (inactive) | > 100 µM (inactive) |  | > 100 µM (inactive) | > 100 µM (inactive) | > 100 µM (inactive) | > 100 µM (inactive) | > 100 µM (inactive) | > 100 µM (inactive) | > 100 µM (inactive) | > 100 µM (inactive) |
| COc1ccc(NS(=O)(=O)c2ccc(/N=C3\C=C(Nc4ccc(S(=O)(=O)Nc5ccc(OC)nn5)cc4)C(=O)c4ccccc43)cc2)nn1 | 18.3 µM (inactive) | 22 µM (inactive) | 16.2 µM (inactive) | 17.7 µM (inactive) | 16.7 µM (inactive) | 15.3 µM (inactive) | > 100 µM (inactive) | 17.5 µM (inactive) | 17.8 µM (inactive) | 18.8 µM (inactive) | 18 µM (inactive) | 53.7 µM (inactive) | 83.6 µM (inactive) | 19.6 µM (inactive) |  |
| COc1cc(/C=C\c2ccc(OC(C)=O)cc2)cc(OC)c1OC | 19.1 µM (inactive) | 29.1 µM (inactive) | 0.352 µM (active) | 2.26 µM (inactive) |  | 22.4 µM (inactive) | 4.06 µM (inactive) | 4.43 µM (inactive) | 3.56 µM (inactive) | 0.668 µM (active) | 2.37 µM (inactive) | 0.587 µM (active) | 5.04 µM (inactive) | 8.13 µM (inactive) | 5.32 µM (inactive) |
